The values that follow are results of earlier work, collected in patent US10359349B2, “Use of focused light scattering techniques in biological applications” (AIDIA INVESTMENT GROUP, INC., priority 2008, dated 2019).

This data set concerns platelets. Particulars: platelet inhibition in arterial thrombophilic diseases; share of drug-treated patients whose platelets are not inhibited.

Regarding `COC(=O)[C@H](c1ccccc1Cl)N1CCc2sccc2C1` [Plavix, clopidogrel bisulfate], the “treated patients who do not respond to treatment” value is on record as around 29%.

With `CC(=O)Oc1ccccc1C(=O)O` [ASA, Aspirin], the “treated patients who do not respond to treatment” value was “Approximately 25%”.
